We go through 24 compounds from ChEMBL document CHEMBL1136601, “Substituted aminopyridines as potent and selective phosphodiesterase-4 inhibitors” (Bioorg Med Chem Lett, 2003).

Activity calls are given as the source filed them.

The species entered for one data set is Homo sapiens. Nature of the data set: Inhibition of LPS-induced TNF-alpha production in human whole blood. The data set is classed as functional, organism-based.
In data set [1] the target is 3',5'-cyclic-AMP phosphodiesterase 4A (Homo sapiens, UniProt P27815). Nature of the data set: Inhibitory activity against human PDE4A expressed isoform using construct representing the common region of spliced variants as GST-fusion protein in Sf9 cells.
Chain of 3',5'-cyclic-AMP phosphodiesterase 4A (P27815 whole entry, looked up, stated change not applied, the tested form may be a part, canonical isoform): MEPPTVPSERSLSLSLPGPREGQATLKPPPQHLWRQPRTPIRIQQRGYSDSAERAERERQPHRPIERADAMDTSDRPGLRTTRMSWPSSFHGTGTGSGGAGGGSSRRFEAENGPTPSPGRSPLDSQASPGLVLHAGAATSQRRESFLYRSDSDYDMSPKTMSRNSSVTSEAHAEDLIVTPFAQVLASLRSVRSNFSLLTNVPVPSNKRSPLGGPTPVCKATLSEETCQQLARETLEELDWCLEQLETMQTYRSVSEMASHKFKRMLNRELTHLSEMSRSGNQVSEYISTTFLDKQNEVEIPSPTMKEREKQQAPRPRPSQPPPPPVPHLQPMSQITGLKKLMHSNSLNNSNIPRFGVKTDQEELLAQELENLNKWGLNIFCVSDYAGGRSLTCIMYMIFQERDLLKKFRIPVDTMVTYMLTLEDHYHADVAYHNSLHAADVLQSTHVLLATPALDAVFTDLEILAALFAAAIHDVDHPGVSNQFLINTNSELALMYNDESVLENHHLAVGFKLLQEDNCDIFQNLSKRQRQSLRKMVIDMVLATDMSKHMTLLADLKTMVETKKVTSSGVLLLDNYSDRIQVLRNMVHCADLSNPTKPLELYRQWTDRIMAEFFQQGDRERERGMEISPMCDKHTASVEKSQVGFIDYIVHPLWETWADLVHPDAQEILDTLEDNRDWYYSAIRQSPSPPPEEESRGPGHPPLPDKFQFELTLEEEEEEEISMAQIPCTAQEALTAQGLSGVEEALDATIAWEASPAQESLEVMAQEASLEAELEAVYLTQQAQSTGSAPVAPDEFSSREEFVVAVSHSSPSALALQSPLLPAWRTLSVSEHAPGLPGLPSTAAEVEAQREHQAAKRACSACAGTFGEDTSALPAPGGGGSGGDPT
Data set [2] in a line: Half life period after intravenous administration at 5 mg/kg in rat. The data set is classed as ADME, organism-based. Also noted: dose 5 mg/kg, route intravenous. The following applies: in vivo.
Data set [3] can be described thus: Oral bioavailability (dose 20 mg/kg p.o.). The data set is classed as ADME, organism-based. The following applies: rat, in vivo.
In data set [4] the test system is Ovis aries. Briefly: In vivo inhibition of ovalbumin-induced bronchoconstriction in sheep late phase at 2.0 mg/kg ip dose 2 hr prior to challenge. The data set is classed as functional. The note with it: route intraperitoneal.
Another data set deals with Mustela putorius furo. Nature of the data set: Emesis in ferrets at 30 mg/kg oral dose. The data set is classed as functional.
Data set [5] can be described thus: Cmax in rats after 20 mg/kg oral dose. The data set is classed as ADME, organism-based. Also on record: dose 20 mg/kg, route oral. The following applies: rat, in vivo.
Data set [6] is described as follows: Cmax in ferrets after 30 mg/kg oral dose. The data set is classed as ADME, organism-based, Mustela putorius furo. Also noted: dose 30 mg/kg, route oral. The note with it: ferret, in vivo.
Data set [7] has as its system Cavia porcellus. Nature of the data set: In vivo inhibition of ovalbumin-induced bronchoconstriction in conscious guinea pig at 1 mg/kg ip dose 4 hr prior 4 hr to challenge. The data set is classed as functional. The note with it: route intraperitoneal.
Data set [8] relates to Ovis aries. Nature of the data set: In vivo inhibition of ovalbumin-induced bronchoconstriction in sheep early phase at 2.0 mg/kg ip dose 4 hr prior to challenge. The data set is classed as functional. The following applies: route intraperitoneal.
Data set [9] has as its system Ovis aries. Briefly: In vivo inhibition of ovalbumin-induced bronchoconstriction in sheep early phase at 20 mg/kg ip dose 30 hr prior to challenge. The data set is classed as functional. The note with it: route intraperitoneal.
For data set [10], the system named is Ovis aries. Nature of the data set: In vivo inhibition of ovalbumin-induced bronchoconstriction in sheep late phase at 20 mg/kg ip dose 2 hr prior to challenge. The note with it: route intraperitoneal. The data set is classed as functional.
Data set [11] relates to Cavia porcellus. Briefly: In vivo inhibition of ovalbumin-induced bronchoconstriction in conscious guinea pig at 1 mg/kg ip dose 30 hr prior to challenge. The data set is classed as functional. The following applies: route intraperitoneal.

Broadly, the IC50 is the concentration that gives 50% inhibition. `CCN(Cc1ccccc1)c1ccc(C(Cc2cc[n+]([O-])cc2)c2ccc(OC(F)F)c(OC(F)F)c2)cn1` (stereo not given): the IC50 is 400 nM in the data set listed under Homo sapiens (Homo sapiens, Blood) and 2.3 nM in data set [1].
On the same counts, the results for `C[C@@H](Nc1ccc(C(Cc2cc[n+]([O-])cc2)c2ccc(OC(F)F)c(OC(F)F)c2)cn1)c1ccccc1` (stereo not given in full) are 900 nM and 1.7 nM.
The matching figures for `CN(c1ccccc1)c1ccc(C(Cc2cc[n+]([O-])cc2)c2ccc(OC(F)F)c(OC(F)F)c2)cn1` (stereo not given): 2100 nM and 0.8 nM.
One may read the half-life as the time needed for the level to fall by half in the phase considered. A low value points to fast loss. As usually defined, the bioavailability is dose-corrected exposure relative to a reference, in per cent. A word on the Cmax: it is the maximum level reached in the sampled fluid or tissue. `[O-][n+]1ccc(CC(c2ccc(C(O)(C(F)(F)F)C(F)(F)F)cc2)c2ccc(OC(F)F)c(OC(F)F)c2)cc1` (stereo not given) gave a half-life in [2] greater than 24 h. In data set [3], this compound gave a bioavailability of 70%. The Efficacy in the data set on Ovis aries [4] is given as 95%; in the data set with Cavia porcellus [7], 58%; in the data set with Ovis aries [8], 85%. Moreover, the Emesis_ED result in the data set on Mustela putorius furo is “inactive”. Further, the values for the Cmax in [5] and in data set [6] were 3.5 µM and 16 µM, respectively. The IC50 in data set [1] was found to be 4.2 nM.
For `CC(C)(Nc1ccc(C(Cc2cc[n+]([O-])cc2)c2ccc(OC(F)F)c(OC(F)F)c2)cn1)c1ccccc1` (stereo in doubt; 3n), the values for the IC50 (in the data set filed under Homo sapiens; in data set [1]) were 200 nM and 1.6 nM, respectively.
In the case of `CN(Cc1ccc2ccccc2c1)c1ccc(C(Cc2cc[n+]([O-])cc2)c2ccc(OC(F)F)c(OC(F)F)c2)cn1` (stereo not given), the 50% inhibitory concentration (IC50) in the data set listed under Homo sapiens (Homo sapiens, Blood) was 300 nM; in data set [1] it was 1.5 nM.
As for `O=C(Cc1ccccc1)Nc1ccc(C(Cc2cc[n+]([O-])cc2)c2ccc(OC(F)F)c(OC(F)F)c2)cn1` (stereo not given), the IC50 in the data set listed under Homo sapiens (Homo sapiens, Blood) is 3800 nM; in [1], 7.8 nM.
On the same counts, the results for `Cc1c[n+]([O-])ccc1CC(c1ccc(C(O)(C(F)(F)F)C(F)(F)F)cc1)c1ccc(OC(F)F)c(OC(F)F)c1` (stereo not given) are 300 nM and 1.3 nM.
The matching figures for `Nc1ccc(C(Cc2cc[n+]([O-])cc2)c2ccc(OC(F)F)c(OC(F)F)c2)cn1` (stereo not given): 1600 nM and 31 nM.
Compound `[O-][n+]1ccc(CC(c2ccc(N3CCCC3)nc2)c2ccc(OC(F)F)c(OC(F)F)c2)cc1` (stereo not given) returned an IC50 in data set [1] of 31 nM.
As to `CN(CCc1ccccc1)c1ccc(C(Cc2cc[n+]([O-])cc2)c2ccc(OC(F)F)c(OC(F)F)c2)cn1` (stereo not given), the IC50 worked out at 800 nM in the data set listed under Homo sapiens (Homo sapiens, Blood) and 5.8 nM in [1].
In turn, `CC(C)(Nc1ccc(C(Cc2cc[n+]([O-])cc2)c2ccc(OC(F)F)c(OC(F)F)c2)cn1)c1ccccc1` (single isomer, unassigned; (-)) gave a half-life in [2] of 2 h. Also, the bioavailability in [3] stood at 100%. The Efficacy worked out at 64% in the data set on Ovis aries [9], 97% in the data set with Ovis aries [10] and 54% in the data set on Cavia porcellus [11]. Besides, the results for the IC50 (in the data set listed under Homo sapiens; in [1]) were 100 nM and 0.8 nM, respectively. In data set [5], this compound showed a Cmax of 2.4 µM.
With `CC(C)Nc1ccc(C(Cc2cc[n+]([O-])cc2)c2ccc(OC(F)F)c(OC(F)F)c2)cn1` (stereo not given), the IC50 worked out at 800 nM in the data set listed under Homo sapiens (Homo sapiens, Blood) and 12 nM in data set [1].
For `CC(=O)Nc1ccc(C(Cc2cc[n+]([O-])cc2)c2ccc(OC(F)F)c(OC(F)F)c2)cn1` (stereo not given), the IC50 worked out at 1800 nM in the data set listed under Homo sapiens (Homo sapiens, Blood) and 33 nM in [1].
On the same counts, the results for `CC(C)(C)N(Cc1ccccc1)c1ccc(C(Cc2cc[n+]([O-])cc2)c2ccc(OC(F)F)c(OC(F)F)c2)cn1` (stereo not given) are 17000 nM and 18 nM.
The matching figures for `C[C@H](c1ccccc1)N(C)c1ccc(C(Cc2cc[n+]([O-])cc2)c2ccc(OC(F)F)c(OC(F)F)c2)cn1` (stereo not given in full): 700 nM and 0.3 nM.
The matching figures for `[O-][n+]1ccc(CC(c2ccc(NCc3ccccc3)nc2)c2ccc(OC(F)F)c(OC(F)F)c2)cc1` (stereo not given): 400 nM and 1.2 nM.
Consider `CCN(c1ccc(C(Cc2cc[n+]([O-])cc2)c2ccc(OC(F)F)c(OC(F)F)c2)cn1)[C@H](C)c1ccccc1` (stereo not given in full), for which the half-maximal inhibitory concentration (IC50) in the data set listed under Homo sapiens (Homo sapiens, Blood) was 200 nM; in data set [1], 0.6 nM.
On the same counts, the results for `CN(Cc1ccccc1)c1ccc(C(Cc2cc[n+]([O-])cc2)c2ccc(OC(F)F)c(OC(F)F)c2)cn1` (stereo not given) are 300 nM and 1.2 nM.
On the same counts, the results for `CCNC(=O)Nc1ccc(C(Cc2cc[n+]([O-])cc2)c2ccc(OC(F)F)c(OC(F)F)c2)cn1` (stereo not given) are 1700 nM and 8.3 nM.
The matching figures for `Cc1ccc(CCNc2ccc(C(Cc3cc[n+]([O-])cc3)c3ccc(OC(F)F)c(OC(F)F)c3)cn2)cc1` (stereo not given): 800 nM and 2.3 nM.
On to `CC(C)N(Cc1ccccc1)c1ccc(C(Cc2cc[n+]([O-])cc2)c2ccc(OC(F)F)c(OC(F)F)c2)cn1` (stereo not given), for which the IC50 was determined as 1000 nM in the data set filed under Homo sapiens (Homo sapiens, Blood) and 9.3 nM in data set [1].
On the same counts, the results for `O=S(=O)(Nc1ccc(C(Cc2cc[n+]([O-])cc2)c2ccc(OC(F)F)c(OC(F)F)c2)cn1)c1ccccc1` (stereo not given) are 34000 nM and 16 nM.
Consider `CC(C)(Nc1ccc(C(Cc2cc[n+]([O-])cc2)c2ccc(OC(F)F)c(OC(F)F)c2)cn1)c1ccccc1` (stereo in doubt; (+)-3n), for which the IC50 came out at 10000 nM in the data set filed under Homo sapiens and 23 nM in data set [1].
